In article PMC11727040, “Monophosphate Derivatives of Luteolin and Apigenin as Efficient Precursors with Improved Oral Bioavailability in Rats” (Antioxidants, 2024):
≈ marks a conversion by molar mass, not a printed value. Where two headings read alike, the source gives them in different places.

Assays:
[1] = Oral pharmacokinetics of Apn, Apn7G and ApnPs in SD rats; assay type: in vivo, Sprague Dawley (SD) rats
Protocol: (§1) (Taipei, Taiwan). and housed individually. The facilities were maintained at 25 °C, at constant humidity, and a 12 h light/dark cycle with ad libitum access to food and water and acclimated for at least 7 days prior to any experiments. Rats were fasted for 24 h before the experiments, with water freely available. For the pharmacokinetic study, rats were randomly assigned to three groups for the tests (n = 4 for Lut-relevant groups; n = 4-5 for Apn-relevant groups). […] The Apn-relevant groups received Apn aqueous suspension, Apn7G aqueous suspension, or ApnPs solution. Dosages were designed as 174.7 μmol/kg for Lut and 185.02 μmol/kg for Apn, based on the human dietary supplement dosage of 500 mg/day, translated by the body surface area index as per FDA guidelines. […] Lut and Apn were quantified in biological samples after enzymatic hydrolysis of their conjugated forms. The plasma was acidified to pH 5 by adding 10 μL of 0.5 M acetate buffer. […] The mixture was fractionated using a Sep-Pak C18 cartridge (Waters, Milford, MA, USA), eluted in order with 0.01 M oxalic acid, water/methanol/0.5 M oxalic acid (88:10:2), distilled water, and 100% methanol. The methanol fraction was adjusted to a constant volume of 500 μL and filtered with a 0.22 μm membrane to remove insoluble matter, and, subsequently, the filtrate underwent UPLC-MS/MS. The levels of Lut and Apn in the plasma were quantified using a Waters ACQUITY UPLC I-Class system (Waters, Milford, MA, USA) equipped with an XEVO TQS-microTriple-Quadrupole Tandem Mass Spectrometer (Waters, Milford, MA, USA). Chromatographic separation was achieved using a Thermo Hypersil GOLD aQ C18 (50 × 2.1 mm, 1.9 μm) column (Thermo Fisher Scientific, Waltham, MA, USA). The injection volume was 3 μL. […] The temperature of the column oven was set at 40 °C. The MRM mode in negative mode was used, and the MS parameter was set as follows. The most intense precursor-to-product transitions were selected: m/z 285→133 for luteolin, and m/z 269→107 and m/z 269→41 for apigenin and genistein, respectively. The source voltage was 1500 V. The desolvation temperature was 400 °C, and the desolvation gas flow was 800 L/h. The source temperature was 150 °C. The contents of Lut and Apn were calculated by the calibration curve and the response obtained by the peak area of them against the internal standard. Details on the multiple reaction monitoring (MRM) conditions, elution gradient programs, and UPLC method validation are provided in the Supplementary Materials Tables S2 and S3. The pharmacokinetic parameters, including maximum concentration (Cmax), time to reach maximum concentration (Tmax), and area under curve (AUC), were determined using the pharmacokinetic software WinNonlin Standard Edition v1.1 (Pharsight Corp., Mountainview, CA, USA).

[2] = biological target: T1, Caco-2 cell apical membrane-associated alkaline phosphatase (ALP) (Homo sapiens, UniProt P09923); test: Dephosphorylation by Caco-2 cell apical membrane-associated ALP; assay type: cell-based; conditions: Caco-2 cells, HBSS, 37 °C, 120 min incubation, initial concentration 20 μM, read-out: elimination half-life (T1/2) of dephosphorylation
T1 construct: The Caco-2 cells (human colon adenocarcinoma, clone of Caco-2) were obtained from the Bioresource Collection and Research Center; endogenous in cells; host or cells: Caco-2 (human colon adenocarcinoma) cells, intact, 5 days in culture
T1 sequence (P09923 20-503 limits assumed): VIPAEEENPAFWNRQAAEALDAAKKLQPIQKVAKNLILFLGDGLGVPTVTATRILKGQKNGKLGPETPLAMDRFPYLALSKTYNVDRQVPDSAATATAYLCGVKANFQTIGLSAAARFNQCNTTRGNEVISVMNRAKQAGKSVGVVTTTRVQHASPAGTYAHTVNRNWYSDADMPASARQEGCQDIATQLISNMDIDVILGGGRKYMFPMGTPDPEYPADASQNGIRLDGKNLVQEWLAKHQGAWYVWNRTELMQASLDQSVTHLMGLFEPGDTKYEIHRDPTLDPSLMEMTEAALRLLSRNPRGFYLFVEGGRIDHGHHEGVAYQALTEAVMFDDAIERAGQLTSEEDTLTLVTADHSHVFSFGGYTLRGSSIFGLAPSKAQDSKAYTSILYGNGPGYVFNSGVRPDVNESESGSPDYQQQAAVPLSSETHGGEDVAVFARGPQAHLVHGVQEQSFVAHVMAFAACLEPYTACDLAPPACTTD
Protocol: The Caco-2 cells (human colon adenocarcinoma, clone of Caco-2) were obtained from the Bioresource Collection and Research Center, Hsinchu, Taiwan. Caco-2 cells were cultured according to previously established protocols. For the dephosphorylation study, the cells were seeded onto 6-well plates at a density of 3.0 × 10^5 cells per well in 2 mL of fresh medium. The medium was refreshed every 48 h. […] The plates were then incubated at 37 °C, and aliquots of 200 μL were collected at 15, 30, 60, and 120 min. […] The supernatants were analyzed by HPLC to quantify the relative content of LutPs to Lut and ApnPs to Apn. To assess the activity of human intestinal alkaline phosphatase (ALP), a positive control of fosphenytoin, a phenytoin phosphate prodrug, was used.
The HPLC system employed in this study consisted of the Waters Alliance 2695 separation module (Waters, Milford, MA, USA), a YMC-Pack ODS-AM C18 column (4.6 × 250 mm, 5 µm) with a guard cartridge (Hichrom 5C18, Berkshire, UK) and a Waters 2487 Dual-Absorbance Detector (Waters, Milford, MA, USA). Chromatographic separation was conducted at a temperature of 30 °C, utilizing a linear gradient mobile phase consisting of 0.1% phosphoric acid in H2O (solvent A) and 0.1% phosphoric acid in acetonitrile (solvent B). The elution gradient programs for quantifying each compound are detailed in Supplementary Materials Table S1. Luteolin and its derivatives were detected at a wavelength of 354 nm, while apigenin and its derivatives were detected at a wavelength of 270 nm, and fosphenytoin at 210 nm. The quantitation was conducted using the external standard method with calibration curves, and the quality was ensured by maintaining an R^2 value exceeding 0.99.

[3] = Stability in simulated gastric fluid (SGF) and simulated intestinal fluid (SIF); assay type: in vitro ADME; conditions: SGF with pepsin and SIF with pancreatin pH 6.8, 125 mg/L, 37 °C
Protocol: For the SGF solution, 5 g of pepsin was dissolved in 1 L of deionized water with the addition of hydrochloric acid to achieve a pH of 1.8. The SIF solution consisted of 6.8 g of monopotassium phosphate and 10 g of pancreatin dissolved in 1 L of deionized water, maintaining a pH of 6.8.

[4] = Oral pharmacokinetics of Lut, Lut7G and LutPs in SD rats; assay type: in vivo, Sprague Dawley (SD) rats
Protocol: as §1

[5] = Dissolution study, USP apparatus II (paddle method); assay type: physicochemical; conditions: for dissolution rate in bile extract solution: bile extract solution as dissolution medium; for dissolution rate after 60 min: standard dissolution medium, 0.05 M phosphate buffer pH 6.8, 37 °C, 20 μM
Protocol: To investigate the influence of bile extract (comprising bile salts and phospholipids) on the dissolution of these compounds, bile extract solutions were prepared according to the protocol described by Makioka et al. This involved dissolving 12 g of porcine bile extract and 8.4 g of sodium bicarbonate in 1 L of deionized water, which served as the dissolution medium. After the sample was placed in the dissolution medium, 1 mL aliquots of the medium were collected at 5, 10, 20, 30, 45, and 60 min of incubation, and filtered through a 0.2 μm polyethersulfone filter (Pall Corp., New York, NY, USA). Subsequently, 500 μL of each sample was acidified with 5 μL of 2 M acetic acid and stored at −20 °C until HPLC analysis.

[6] = design: method as in doi:10.1016/j.jff.2017.05.056; conditions: rats, 20 μmol/kg (5.725 mg/kg) via gavage; cited from earlier work
[7] = cited from earlier work
[8] = Aqueous solubility, classical shake-flask method; conditions: ultrapure water
Excerpt: Then, the resulting supernatant (the saturated solution) was aliquoted and diluted carefully and properly to perform the quantitative analysis using HPLC.

[9] = design: method as in PMID 32785007; conditions: rats, oral 10 mg/kg; read-out: maximum plasma concentration (Cmax); cited from earlier work
[10] = rat, in vivo, po, 185.02 umol/kg
[11] = rat, in vivo, po, 174.7 umol/kg

O=c1cc(-c2ccc(O)cc2)oc2cc(O[C@@H]3O[C@H](CO)[C@@H](O)[C@H](O)[C@H]3O)cc(O)c12 [Apn7G, apigenin 7-O-glucoside]
Apn conjugates AUC0–t [1, 10]: 13,243.27 nM·h | Apn conjugates Tmax [1, 10]: 2.00 h | Lut (metabolite) conjugates AUC0–t [1, 10]: 8.78863 µM·h | Lut (metabolite) conjugates Tmax [1, 10]: 2.00 h | aglyconic Apn AUC0–t [1, 10]: 0.37171 µM·h | aglyconic Apn Tmax [1, 10]: 0.5 h | aglyconic Lut (metabolite) AUC0–t [1, 10]: 0.01854 µM·h | aglyconic Lut (metabolite) Tmax [1, 10]: 1.00 h | overall Apn AUC0–t [1, 10]: 13,614.98 nM·h | overall Apn Tmax [1, 10]: 2.00 h | overall Lut (metabolite) AUC0–t [1, 10]: 8.87017 µM·h | overall Lut (metabolite) Tmax [1, 10]: 2.00 h

O=C1NC(c2ccccc2)(c2ccccc2)C(=O)N1COP(=O)(O)O [fosphenytoin]
half-life at 20 μM [2]: 1.67 h

O=c1cc(-c2ccc(O)cc2)oc2cc(OP(=O)(O)O)cc(O)c12 [Apn7P, apigenin 7-O-phosphate]
half-life at 20 μM [2]: 0.73 h | retained relative content after 240 min of incubation [3]: 76%

O=c1cc(-c2ccc(O)c(O)c2)oc2cc(O[C@@H]3O[C@H](CO)[C@@H](O)[C@H](O)[C@H]3O)cc(O)c12 [Lut7G, luteolin 7-O-glucoside]
AUC0–∞ of overall Lut ([4]; rat, in vivo, po): 35.419 µM·h | aglyconic luteolin AUC0–t [4, 11]: 2.00935 µM·h | aglyconic luteolin Tmax [4, 11]: 1.00 h | luteolin conjugates AUC0–t [4, 11]: 31,336.03 nM·h | luteolin conjugates Tmax [4, 11]: 4.00 h | overall luteolin AUC0–t [4, 11]: 33,111.44 nM·h | overall luteolin Tmax [4, 11]: 2.00 h

O=c1cc(-c2ccc(O)c(OP(=O)(O)O)c2)oc2cc(O)cc(O)c12 [Lut3′P, luteolin 3′-O-phosphate]
half-life at 20 μM [2]: 0.693 h | retained relative content after 240 min of incubation [3]: over 80%

O=c1cc(-c2ccc(OP(=O)(O)O)c(O)c2)oc2cc(O)cc(O)c12 [Lut4′P, luteolin 4′-O-phosphate]
half-life at 20 μM [2]: 0.463 h | retained relative content after 240 min of incubation [3]: over 80%

O=c1cc(-c2ccc(O)c(O)c2)oc2cc(O)cc(O)c12 [Lut, 3′,4′,5,7-tetrahydroxyflavone]
dissolution rate in bile extract solution [5]: 10.2% | dissolution rate after 60 min [5]: 3.5% | Cmax ([4]; male, Sprague Dawley, 174.7 umol/kg, rat plasma, oral 174.7 µmol/kg, mean ± SE, read-out: aglyconic luteolin Cmax): 140 ± 194 nM | AUC(0-t) ([4]; male, Sprague Dawley, 174.7 umol/kg, rat plasma, oral 174.7 µmol/kg, zero to 8 h, read-out: aglyconic luteolin AUC0–t): 0.635 µM·h | Tmax ([4]; male, Sprague Dawley, 174.7 umol/kg, rat plasma, oral 174.7 µmol/kg, read-out: aglyconic luteolin Tmax): 1 h | brain tissue concentration [6]: less than 0.1 nmol/g | absolute oral bioavailability [7]: 4.10% | solubility [8]: 13 µg/mL (≈ 45.4 µM)

O=c1cc(-c2ccc(OP(=O)(O)O)cc2)oc2cc(O)cc(O)c12 [Apn4′P, apigenin 4′-O-phosphate]
half-life at 20 μM [2]: 1.07 h | retained relative content after 240 min of incubation [3]: over 80%

O=c1cc(-c2ccc(O)cc2)oc2cc(O)cc(O)c12 [Apn, 4′,5,7-trihydroxyflavone]
dissolution rate in bile extract solution [5]: 12.5% | dissolution rate after 60 min [5]: 0.24% | Cmax [9]: 80 nM | AUC(0-t) ([1]; male, Sprague Dawley, 185.02 umol/kg, rat plasma, oral 185.02 µmol/kg, 0 to 10 h, read-out: aglyconic Apn AUC0–t): 0.113 µM·h | Cmax ([1]; male, Sprague Dawley, 185.02 umol/kg, rat plasma, oral 185.02 µmol/kg, mean ± SE, read-out: aglyconic Apn Cmax): 14 ± 1.27 nM | aglyconic Apn Tmax ([1]; rat plasma, oral 185.02 µmol/kg): 0.5 h | absolute oral bioavailability [7]: 0.71% | solubility [8]: 1.2 µg/mL (≈ 4.44 µM)

O=c1cc(-c2ccc(O)c(O)c2)oc2cc(OP(=O)(O)O)cc(O)c12 [Lut7P, luteolin 7-O-phosphate]
half-life at 20 μM [2]: 0.287 h | retained relative content after 240 min of incubation [3]: 73%
